Data set [1] deals with T1, Lysosomal acid glucosylceramidase (Homo sapiens, UniProt P04062, N409S). The data set can be described thus: Chaperone activity at GCase N370S GBA mutant in patient derived fibroblast cells using 4-methylumbelliferyl-beta-D-glucopyranoside as substrate incubated for 5 days by fluorescence based analysis. In kind it is cell-based. Particulars: read-out: EC50.
The nature of data set [2]: Stability of the compound in human liver microsomes assessed as intrinsic clearance. Particulars: read-out: CLH. In kind it is ADME, Microsome.
Data set [3] is described as follows: Stability of the compound in mouse liver microsomes assessed as intrinsic clearance. In kind it is ADME, Microsome. Particulars: read-out: CLH. (Liver microsomes are vesicles of endoplasmic reticulum, rich in cytochrome P450 enzymes.)
Data set [4] can be described thus: Solubility of the compound at pH 7.4. Format: physicochemical. Particulars: buffer.
Data set [5] can be described thus: Solubility of the compound at pH 1.2. Format: physicochemical. Conditions: buffer.
Data set [6] deals with T1, Lysosomal acid glucosylceramidase. The data set can be described thus: Inhibition of GCase N370S GBA mutant in patient derived fibroblast cells using 4-methylumbelliferyl-beta-D-glucopyranoside as substrate incubated for 5 days by fluorescence based analysis. Format: cell-based. Conditions: read-out: IC50.
Data set [7] addresses Voltage-gated inwardly rectifying potassium channel KCNH2 (Homo sapiens, UniProt Q12809). The data set can be described thus: Inhibition of human ERG. In kind it is toxicity.
Data set [8] can be described thus: Stability of the compound in JPI fluid at pH 1.2. In kind it is physicochemical. Particulars: buffer.
The nature of data set [9]: Stability of the compound in DMSO. In kind it is physicochemical.
Data set [10] concerns T2, Lysosomal acid glucosylceramidase (Homo sapiens), P04062 [N409S].
T2 sequence (whole entry): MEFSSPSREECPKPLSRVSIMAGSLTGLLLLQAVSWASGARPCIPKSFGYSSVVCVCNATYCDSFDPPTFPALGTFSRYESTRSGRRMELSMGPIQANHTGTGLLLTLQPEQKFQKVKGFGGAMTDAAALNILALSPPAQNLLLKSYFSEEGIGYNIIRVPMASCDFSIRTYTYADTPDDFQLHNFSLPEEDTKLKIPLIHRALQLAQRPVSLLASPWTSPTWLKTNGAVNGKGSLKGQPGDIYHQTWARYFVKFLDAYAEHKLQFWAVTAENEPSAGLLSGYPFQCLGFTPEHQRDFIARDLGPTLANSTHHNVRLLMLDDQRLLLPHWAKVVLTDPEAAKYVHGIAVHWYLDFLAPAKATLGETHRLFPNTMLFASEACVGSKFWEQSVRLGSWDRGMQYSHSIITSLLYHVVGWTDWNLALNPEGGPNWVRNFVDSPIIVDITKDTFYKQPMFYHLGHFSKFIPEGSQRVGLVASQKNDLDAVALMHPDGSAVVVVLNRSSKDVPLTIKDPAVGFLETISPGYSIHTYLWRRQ
In words: Inhibition of GCase N370S GBA mutant in patient derived fibroblast cells using 4-methylumbelliferyl-beta-D-glucopyranoside as substrate incubated for 5 days by fluorescence based analysis relative to control. In kind it is cell-based. Conditions: time 5.0 day.

Data set [11] shares this test system. The data set can be described thus: Chaperone activity at GCase N370S GBA mutant in patient derived fibroblast cells using 4-methylumbelliferyl-beta-D-glucopyranoside as substrate incubated for 5 days by fluorescence based analysis relative to control. Particulars: time 5.0 day. In kind it is cell-based.

Where only a bound is given, the exact number is not on record here.

For orientation: EC50 means the concentration at which the effect is half-maximal. The term solubility denotes the dissolved amount per volume that the medium holds. By IC50 is commonly meant the concentration at which inhibition is half-maximal. As a reminder, the Emax is the maximal effect, on the per cent scale that the assay sets.

Chain of Voltage-gated inwardly rectifying potassium channel KCNH2 (Q12809 whole entry): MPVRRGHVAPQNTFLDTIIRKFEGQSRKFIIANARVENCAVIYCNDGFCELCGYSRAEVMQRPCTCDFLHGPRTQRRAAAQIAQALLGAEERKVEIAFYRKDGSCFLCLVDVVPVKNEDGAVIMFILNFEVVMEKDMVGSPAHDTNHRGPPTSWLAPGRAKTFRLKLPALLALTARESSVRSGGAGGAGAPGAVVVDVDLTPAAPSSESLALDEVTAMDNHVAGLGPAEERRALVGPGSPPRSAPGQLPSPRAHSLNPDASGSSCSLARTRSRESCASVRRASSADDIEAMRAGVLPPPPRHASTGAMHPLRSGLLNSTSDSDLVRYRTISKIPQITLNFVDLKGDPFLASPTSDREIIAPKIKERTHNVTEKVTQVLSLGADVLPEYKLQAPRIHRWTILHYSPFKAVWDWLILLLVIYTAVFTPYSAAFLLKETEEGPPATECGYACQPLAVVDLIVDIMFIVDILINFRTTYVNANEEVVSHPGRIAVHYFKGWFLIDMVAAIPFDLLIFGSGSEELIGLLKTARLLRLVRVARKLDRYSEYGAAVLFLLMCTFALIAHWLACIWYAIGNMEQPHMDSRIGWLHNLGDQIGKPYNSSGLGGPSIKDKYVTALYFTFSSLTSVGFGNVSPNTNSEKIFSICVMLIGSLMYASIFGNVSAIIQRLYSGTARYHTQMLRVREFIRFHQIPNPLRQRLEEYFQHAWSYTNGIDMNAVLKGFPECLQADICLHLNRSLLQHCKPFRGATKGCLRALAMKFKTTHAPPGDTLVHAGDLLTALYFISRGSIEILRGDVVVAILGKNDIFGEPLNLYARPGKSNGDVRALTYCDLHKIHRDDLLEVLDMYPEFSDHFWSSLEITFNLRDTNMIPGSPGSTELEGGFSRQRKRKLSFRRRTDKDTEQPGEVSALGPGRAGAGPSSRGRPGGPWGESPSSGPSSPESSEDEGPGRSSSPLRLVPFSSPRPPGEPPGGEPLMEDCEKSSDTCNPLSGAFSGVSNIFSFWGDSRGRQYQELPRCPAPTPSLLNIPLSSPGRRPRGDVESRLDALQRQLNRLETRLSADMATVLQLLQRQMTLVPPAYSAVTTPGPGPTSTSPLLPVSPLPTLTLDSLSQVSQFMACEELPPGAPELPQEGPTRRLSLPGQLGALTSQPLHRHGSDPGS

As to `Cc1n[nH]c2c1[C@@H](O)[C@H](n1nnc3ccccc31)[C@@H](c1ccccc1Br)N2`, in [1], the EC50 was determined as 0.086 µM. For the same compound, the microsomal CLint in data set [2] amounted to 22.7 µL/min/mg; in [3] it was 31.4 µL/min/mg. Moreover, the solubility in data set [4] and in [5] was over 100 µM throughout. The 50% inhibitory concentration (IC50) in data set [6] was 0.33 µM; in data set [7], over 25 µM.

Turning to `Cc1n[nH]c2c1[C@@H](O)[C@H](n1nnc3ccccc31)[C@@H](c1ccccc1Cl)N2`, in [1], the EC50 turned out to be 0.076 µM. The results for the microsomal CLint in data set [2] and in data set [3] were 9.61 µL/min/mg and 15.7 µL/min/mg, respectively. Also, the solubility in data set [4] and in [5] was over 100 µM each time. In addition, the IC50 in data set [6] was 0.11 µM; in [7] it was over 25 µM.

In the case of `Cc1n[nH]c2c1[C@@H](O)[C@H](n1nnc3ccccc31)[C@@H](c1ccccc1)N2`, the EC50 in data set [1] came to 1.1 µM. Besides, the microsomal CLint in [2] came to 5.01 µL/min/mg; in data set [3], 9.88 µL/min/mg. Also, the solubility in data set [4] and in [5] was over 100 µM in each case. The IC50 in [6] was 3.2 µM.

Take `Cc1cc2n(n1)C(O)[C@H](n1nnc3ccccc31)[C@@H](c1ccccc1)N2` (stereo not given in full): the EC50 in [1] came to 5.6 µM. For the same compound, the Stability result in data set [8] and in data set [9] was “Stable” throughout.

Take `O[C@@H]1c2c(C3CC3)n[nH]c2N[C@H](c2ccccc2Cl)[C@H]1n1nnc2ccccc21` (racemic): the Emax stood at 95% in data set [10] and 172% in data set [11]. For the same compound, the EC50 in data set [1] amounted to 0.083 µM. In addition, in [6], the IC50 came to 0.074 µM.

Regarding `Cc1n[nH]c2c1[C@@H](O)[C@H](n1nnc3ccccc31)[C@@H](C1CCCCC1)N2` (racemic), the maximal effect (Emax) in data set [10] was 102%; in data set [11], 180%. The EC50 in data set [1] was 0.37 µM. Further, the IC50 in data set [6] was found to be 0.65 µM.

Consider `O[C@@H]1c2ccncc2N[C@H](c2ccccc2Cl)[C@H]1n1nnc2ccccc21` (racemic), for which the Emax is 99% in [10] and 151% in data set [11]. Further, the EC50 in data set [1] stood at 0.57 µM. In addition, in data set [6], the IC50 turned out to be 1.8 µM.
